# Laboratory results reported in US12338236B2, “Benzoisothiazole and benzoisoxazole compounds for the treatment of mental disorders” (SUVEN LIFE SCIENCES LIMITED, priority 2022, dated 2025).
# Structures can show the parent of a compound that is named as a salt.
# Tested on: amphetamine-induced hyperlocomotion
# Assay: Amphetamine-induced open field assay
# Format: in vivo, Male Wistar rats
# Settings: rats, 3, 10, 30 mg/kg, p.o., vs Amphetamine (2.5 mg/kg, i.p.) treated group
# Method: Example-51: Amphetamine-Induced Open Filed Assay
# Male Wistar rats of 230-250 g weight were used. The body weights of the rats were recorded. Rats were randomized according to their body weights. Animals were brought to the laboratory 1 h prior to acclimatizing to the laboratory conditions. The open field is black colored arena of 51×51×51 cm enclosed by black plastic walls of same dimensions. Rats were habituated to the open field arena for a period of 15 min. Animals were administered respective treatments (Vehicle or Example-2) 60 min prior to the trial. After 30 min, animals were challenged with amphetamine (2.5 mg/kg, i.p.) or vehicle. Then the animals were placed in open field arenas and distance traveled by […] was tracked for 15 min using Videomot software. Data was analyzed using GraphPad prism.
structure (smiles),measurement,value
"Cc1nnc(-c2csc(OCCCN3CCN(c4nsc5ccccc45)CC3)n2)o1 [Example-2, 3-(4-{3-[4-(5-Methyl-[1,3,4]oxadiazol-2-yl)-thiazol-2-yloxy]-propyl}-piperazin-1-yl)-benzo[d]isothiazole oxalate]",Effect on amphetamine-induced locomotion (distance traveled),significant decrease in locomotion
